Like-named read-outs stand apart in the source and are kept apart here.
How the values were obtained:
BIRC2 = BIRC2 (Homo sapiens, UniProt Q13490); experiment: NanoBRET cellular target engagement, full-length BIRC2
Method: (§1) In brief: Constructs contained the cDNA of full-length or single domains cloned in frame with an N-terminal NanoLuc-fusion as specified in Supplementary Table S2. Plasmids were transfected into HEK293T cells using FuGENE HD (Promega, E2312) and proteins were allowed to express for 20 h. […] The corresponding transfected cells were added and reseeded at a density of 2.5^5 cells/mL after trypsinization and resuspending in Opti-MEM without phenol red (Life Technologies). […] Competitive displacement data were then graphed using GraphPad Prism 9.3 software using a normalized 3-parameter curve fit with the following equation: Y = 100/(1 + 10^(X-LogIC50)).

BIRC3 = BIRC3 (Homo sapiens, UniProt Q13489); experiment: NanoBRET cellular target engagement, full-length BIRC3
BIRC7 = target: T1, BIRC7 (Homo sapiens, UniProt Q96CA5); experiment: NanoBRET cellular target engagement, full-length BIRC7
T1 sequence (Q96CA5 1-298): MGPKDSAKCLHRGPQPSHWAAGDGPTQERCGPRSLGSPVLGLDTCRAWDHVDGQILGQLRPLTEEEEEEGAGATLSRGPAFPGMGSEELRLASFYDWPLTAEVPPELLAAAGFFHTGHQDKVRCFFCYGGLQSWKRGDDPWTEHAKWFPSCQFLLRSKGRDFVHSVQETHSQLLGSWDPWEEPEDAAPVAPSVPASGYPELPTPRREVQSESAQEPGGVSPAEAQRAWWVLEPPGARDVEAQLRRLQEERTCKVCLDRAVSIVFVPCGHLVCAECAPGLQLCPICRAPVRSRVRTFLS
Method: as §1

BIRC8 = target: T2, BIRC8 (Homo sapiens, UniProt Q96P09); experiment: NanoBRET cellular target engagement, full-length BIRC8
T2 sequence (Q96P09 1-236): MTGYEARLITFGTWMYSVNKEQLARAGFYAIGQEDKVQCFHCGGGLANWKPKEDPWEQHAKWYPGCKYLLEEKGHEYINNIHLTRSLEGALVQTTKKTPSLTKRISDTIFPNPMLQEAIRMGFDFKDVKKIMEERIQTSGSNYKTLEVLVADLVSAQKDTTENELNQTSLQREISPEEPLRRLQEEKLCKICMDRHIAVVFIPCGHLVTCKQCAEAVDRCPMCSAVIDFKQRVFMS

BIRC7 BIR = target: T3, BIRC7 BIR (Homo sapiens, UniProt Q96CA5); experiment: NanoBRET cellular target engagement, single domain BIRC7 BIR
T3 sequence (Q96CA5 70-176): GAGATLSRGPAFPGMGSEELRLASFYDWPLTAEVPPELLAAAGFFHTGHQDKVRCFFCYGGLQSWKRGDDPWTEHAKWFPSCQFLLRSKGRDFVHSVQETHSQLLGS
Method: as §1

BIRC8 BIR = target: T4, BIRC8 BIR (Homo sapiens, UniProt Q96P09); experiment: NanoBRET cellular target engagement, single domain BIRC8 BIR
T4 sequence (Q96P09 1-90): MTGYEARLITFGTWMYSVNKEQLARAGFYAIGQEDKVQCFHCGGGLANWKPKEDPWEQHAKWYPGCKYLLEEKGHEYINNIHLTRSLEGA
Method: as §1

BIRC2 BIR2 = BIRC2 BIR2 (Homo sapiens, UniProt Q13490); experiment: NanoBRET cellular target engagement, single domain BIRC2 BIR2
BIRC2 BIR2, sequence (Q13490 165-267): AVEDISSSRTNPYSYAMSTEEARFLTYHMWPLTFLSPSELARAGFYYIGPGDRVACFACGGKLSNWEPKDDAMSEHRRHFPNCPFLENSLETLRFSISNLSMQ
Method: as §1

BIRC3 BIR2 = BIRC3 BIR2 (Homo sapiens, UniProt Q13489); experiment: NanoBRET cellular target engagement, single domain BIRC3 BIR2
BIRC3 BIR2, sequence (Q13489 147-253): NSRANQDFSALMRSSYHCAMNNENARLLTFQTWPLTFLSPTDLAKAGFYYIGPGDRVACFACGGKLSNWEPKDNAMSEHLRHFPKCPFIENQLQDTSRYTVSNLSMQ
Method: as §1

BIRC2 BIR3 = BIRC2 BIR3 (Homo sapiens, UniProt Q13490); experiment: NanoBRET cellular target engagement, single domain BIRC2 BIR3
BIRC2 BIR3, sequence (Q13490 251-372): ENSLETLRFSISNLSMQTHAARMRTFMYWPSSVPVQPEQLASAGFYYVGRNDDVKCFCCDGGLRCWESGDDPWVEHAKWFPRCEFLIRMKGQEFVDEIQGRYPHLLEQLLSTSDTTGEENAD
Method: as §1

BIRC3 BIR3 = BIRC3 BIR3 (Homo sapiens, UniProt Q13489); experiment: NanoBRET cellular target engagement, single domain BIRC3 BIR3
BIRC3 BIR3, sequence (Q13489 236-360): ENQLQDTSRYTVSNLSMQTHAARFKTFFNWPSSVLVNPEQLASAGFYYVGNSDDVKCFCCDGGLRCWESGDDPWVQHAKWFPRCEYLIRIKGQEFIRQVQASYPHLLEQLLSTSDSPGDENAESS
Method: as §1

BIRC1 BIR[2] = target: T5, BIRC1 BIR[2] (Homo sapiens, UniProt Q13075); experiment: NanoBRET cellular target engagement, single domain BIRC1 BIR[2]
T5 sequence (Q13075 139-251): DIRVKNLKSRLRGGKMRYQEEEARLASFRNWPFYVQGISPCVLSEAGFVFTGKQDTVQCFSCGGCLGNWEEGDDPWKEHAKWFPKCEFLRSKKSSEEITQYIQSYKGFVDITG
Method: as §1

BIRC2-BIR3 domain [1] = target: T6, BIRC2-BIR3 domain (Homo sapiens, UniProt Q13490); experiment: Fluorescence polarization (FP) competition assay with fluorescent SMAC probe; assay type: binding; design: BIRC2-BIR3 domain (260–352) was expressed; His6 (N, cleaved yes); GST (N, cleaved yes); made in house; host or cells: E. coli; conditions: for Ki: read-out: FP Assay K I Values
T6 sequence (Q13490 260-352): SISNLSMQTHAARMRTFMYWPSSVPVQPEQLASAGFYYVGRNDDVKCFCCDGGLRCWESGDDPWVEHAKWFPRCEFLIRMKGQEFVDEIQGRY
Method: Resulting data was plotted using GraphPad Prism 9.3 software and analyzed using a nonlinear fit to calculate the probe IC50. […] Compounds were titrated from 20 μM to 20 nM using an ECHO 550 acoustic dispenser (Labcyte) incubated for 1 h at room temperature and subsequent read out.
The assay is based on the displacement of a fluorescent SMAC mimetic from the binding site.

BIRC2-BIR3 domain [2] = target: T6, BIRC2-BIR3 domain; experiment: Isothermal titration calorimetry (ITC); assay type: binding; design: BIRC2-BIR3 domain (260–352) was expressed; His6 (N, cleaved yes); GST (N, cleaved yes); made in house; host or cells: E. coli
Method: For this protocol, the chamber was pre-equilibrated with the test compound, and the BIRC2-BIR3 domain was titrated in while continuously measuring the rate of exothermic heat evolution. The heat of binding was integrated, corrected, and fitted to an independent single-binding site model based on the manufacturer’s instructions, from which thermodynamic parameters (ΔH and TΔS), equilibrium association and dissociation constants (K A and K D, respectively), and stoichiometry (n) were calculated.

BIRC2-BIR3 domain [3] = target: T6, BIRC2-BIR3 domain; experiment: Differential scanning fluorimetry (DSF); conditions: for ΔTm at 40 µM: read-out: DSF Assay ΔTm; for ΔTm [°C] (Supplementary Table S1): technical replicate
Method: Purified proteins were buffered in DSF buffer (25 mM HEPES pH 7.5, 500 mM NaCl) and were assayed in a 384-well plate (Thermo, #BC3384) with a final protein concentration of 20 μM in 10 μL final assay volume. Inhibitors were added in excess to a final concentration of 40 μM, using an ECHO 550 acoustic dispenser (Labcyte). As a fluorescent probe, SYPRO-Orange (Molecular Probes) was used at 5x final concentration. […] Data was analyzed using Boltzmann-equation in the Protein Thermal Shift software (Applied Biosystems). Samples were measured in technical triplicates.
The assay was run in the presence of DMSO to exclude DMSO influences towards melting temperature differences when testing small molecules (Figures 2C,D).

BIRC4 = BIRC4 (Homo sapiens, UniProt P98170); experiment: NanoBRET cellular target engagement, full-length BIRC4
BIRC4, sequence (P98170 whole entry): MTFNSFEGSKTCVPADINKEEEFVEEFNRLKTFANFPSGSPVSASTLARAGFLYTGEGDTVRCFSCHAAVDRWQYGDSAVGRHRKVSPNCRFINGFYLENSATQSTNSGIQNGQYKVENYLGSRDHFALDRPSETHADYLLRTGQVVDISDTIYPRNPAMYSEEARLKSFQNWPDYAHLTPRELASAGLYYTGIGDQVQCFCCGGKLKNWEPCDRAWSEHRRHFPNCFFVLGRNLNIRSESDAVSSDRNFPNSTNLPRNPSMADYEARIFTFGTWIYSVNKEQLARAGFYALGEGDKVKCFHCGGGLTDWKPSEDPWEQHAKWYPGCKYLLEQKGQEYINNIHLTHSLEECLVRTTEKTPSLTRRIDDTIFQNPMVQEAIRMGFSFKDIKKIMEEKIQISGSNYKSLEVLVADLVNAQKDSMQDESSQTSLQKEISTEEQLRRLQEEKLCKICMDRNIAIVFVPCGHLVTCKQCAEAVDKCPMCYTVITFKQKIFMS

[4] = 25°C, duplicates, mean ± SD, read-out: K D Measured in ITC

BIRC3, sequence (Q13489 whole entry): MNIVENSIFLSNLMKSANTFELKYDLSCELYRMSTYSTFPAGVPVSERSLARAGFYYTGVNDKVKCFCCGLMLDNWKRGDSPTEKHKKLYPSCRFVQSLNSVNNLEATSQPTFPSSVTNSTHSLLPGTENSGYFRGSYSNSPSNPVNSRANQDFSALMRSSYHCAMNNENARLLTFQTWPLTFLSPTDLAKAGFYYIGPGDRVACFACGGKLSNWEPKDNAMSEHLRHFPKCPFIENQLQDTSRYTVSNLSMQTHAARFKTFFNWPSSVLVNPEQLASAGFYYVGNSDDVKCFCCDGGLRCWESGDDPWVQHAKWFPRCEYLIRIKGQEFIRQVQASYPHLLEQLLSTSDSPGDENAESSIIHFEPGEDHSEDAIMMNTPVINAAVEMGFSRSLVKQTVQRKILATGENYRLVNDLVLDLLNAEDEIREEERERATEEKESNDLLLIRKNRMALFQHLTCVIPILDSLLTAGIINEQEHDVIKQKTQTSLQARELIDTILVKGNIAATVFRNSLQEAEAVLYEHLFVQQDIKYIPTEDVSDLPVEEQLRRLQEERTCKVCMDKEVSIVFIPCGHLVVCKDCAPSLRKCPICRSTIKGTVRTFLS
BIRC2, sequence (Q13490 whole entry): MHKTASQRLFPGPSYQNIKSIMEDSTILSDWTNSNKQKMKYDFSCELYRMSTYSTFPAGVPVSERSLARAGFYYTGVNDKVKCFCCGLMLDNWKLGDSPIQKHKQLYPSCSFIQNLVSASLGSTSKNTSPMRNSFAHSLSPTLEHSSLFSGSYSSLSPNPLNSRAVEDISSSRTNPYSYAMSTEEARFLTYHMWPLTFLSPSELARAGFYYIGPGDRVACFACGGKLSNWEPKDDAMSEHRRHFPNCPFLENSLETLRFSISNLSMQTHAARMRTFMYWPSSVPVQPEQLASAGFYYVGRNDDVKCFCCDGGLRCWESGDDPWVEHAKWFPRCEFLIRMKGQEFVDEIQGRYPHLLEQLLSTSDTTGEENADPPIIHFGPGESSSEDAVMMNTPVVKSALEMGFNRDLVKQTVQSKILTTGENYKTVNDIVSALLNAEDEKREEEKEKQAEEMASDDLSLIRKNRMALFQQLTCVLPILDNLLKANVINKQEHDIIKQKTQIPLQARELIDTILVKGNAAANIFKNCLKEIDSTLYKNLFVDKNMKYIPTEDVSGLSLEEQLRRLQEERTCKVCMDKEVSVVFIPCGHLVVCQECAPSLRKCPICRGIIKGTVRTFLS

EC50 (BIRC2) [nM]	EC50 (BIRC3) [nM]	EC50 (BIRC7) [nM]	EC50 (BIRC8) [nM]	EC50 (BIRC7 BIR) [nM]	EC50 (BIRC8 BIR) [nM]	EC50 (BIRC2 BIR2) [µM]	EC50 (BIRC3 BIR2) [µM]	EC50 (BIRC2 BIR3) [nM]	EC50 (BIRC3 BIR3) [nM]	EC50 (BIRC1 BIR[2]) [µM]	Ki (BIRC2-BIR3 domain [1]) [nM]	Kd (BIRC2-BIR3 domain [2]; [4]) [nM]	ΔTm at 40 µM (BIRC2-BIR3 domain [3]) [°C]	ΔTm [°C] (Supplementary Table S1) (BIRC2-BIR3 domain [3]; first column)	ΔTm [°C] (Supplementary Table S1) (BIRC2-BIR3 domain [3]; second column)	EC50 (BIRC4) [nM]	SMILES	other results
4.6 ± 0.2	9.2 ± 1	19.9 ± 2.6	93.9 ± 9.3	17 ± 2.4	108 ± 7.5	0.333 ± 0.0354	0.681 ± 0.068	0.4 ± 0.2	1.5 ± 0.2	1.23 ± 0.325	2 ± 1.1	37.5 ± 6.1	–	–	–	–	CN[C@@H](C)C(=O)N[C@H](C(=O)N1CCC[C@H]1C(=O)N[C@@H]1CCCc2ccccc21)C1CCCCC1 [A 410099.1]	gain in potency on single BIR3 domain compared to full-length protein (BIRC2 BIR3; NanoBRET, single BIR3 domain vs full-length): about 10 fold; IC50 (BIRC2-BIR3 domain [1]; BIRC2 BIR3 domain, 5 nM probe, 30 nM protein, approximations, read-out: FP assay IC50 (estimated)): 5.4 nM; ITC ΔG (BIRC2-BIR3 domain [2]; 25°C): -10.04 kcal/mol; ITC ΔH (BIRC2-BIR3 domain [2]; 25°C): -8.23 kcal/mol; Kd (BIRC2-BIR3 domain [2]; 25°C, exemplary titration, read-out: ITC KD (Figure 2E,F)): 43.6 nM; ITC stoichiometry n (BIRC2-BIR3 domain [2]; exemplary titration, Figure 2E,F): 1.074
–	62 ± 8.5	25.1 ± 5.2	69.3 ± 21.1	18 ± 4.5	69.6 ± 0.3	–	8.135 ± 0.0523	–	5.2 ± 1.2	0.467 ± 0.021	–	–	11.6 ± 0.2	11.8	11.8	28.5 ± 5.2	CN[C@@H](C)C(=O)N[C@H]1CN(C(=O)CC(C)C)CC[C@H]2CC[C@@H](C(=O)NC(c3ccccc3)c3ccccc3)N2C1=O [AT406]	ΔTm [°C] (Supplementary Table S1) (BIRC2-BIR3 domain [3]; third column): 11.4 °C
–	800 ± 400	–	2200 ± 1100	–	3500 ± 100	–	17.4 ± 1.7	–	900	18.3 ± 1.1	–	–	–	–	–	–	CC[C@H](NC(=O)[C@H](C)NC)C(=O)N1C[C@@H](O)C[C@H]1Cc1c(-c2[nH]c3cc(F)ccc3c2C[C@@H]2C[C@H](O)CN2C(=O)[C@H](CC)NC(=O)[C@H](C)NC)[nH]c2cc(F)ccc12 [Birinapant]	–
622 ± 232	739 ± 108	–	218 ± 48.3	–	272 ± 6.1	15.4 ± 8.97	14.8 ± 0.636	54.4 ± 1	20 ± 3.1	10.1 ± 1.23	2.9 ± 0.3	44.7 ± 11.8	10.8 ± 0.1	10.9	10.9	190 ± 26.9	CN[C@@H](C)C(=O)N[C@H](C(=O)N1CCC[C@H]1C(=O)Nc1sc(-c2ncco2)nc1-c1ccccc1)C1CCCCC1 [CUDC-427]	Mean, ΔTm [°C] (Supplementary Table S1) (BIRC2-BIR3 domain [3]; mean of n=3, difference to DMSO control): 10.9 °C

Source: article PMC9204419, “A Toolbox for the Generation of Chemical Probes for Baculovirus IAP Repeat Containing Proteins” (Frontiers in Cell and Developmental Biology, 2022)
